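Cells were grown in 96-well plates and exposed to each compound for 48 hours at five concentrations; endpoints were interpolated linearly between bracketing concentrations, or set to the highest concentration if not reached. GI50 marks 50% less growth.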 Calls of active or inactive are those of the source. Rule as the data show it: active = GI50 up to about 1.1 µM and inactive = higher.
Tests used:
Experiment in all cases: growth of human tumour cells (NCI), 48 h
DMS-273 = tested on: DMS-273
SNB-19 = tested on: SNB-19
M19-MEL = tested on: M19-MEL
Malme-3M = tested on: Malme-3M
LOX IMVI = tested on: LOX IMVI
OVCAR-3 = tested on: OVCAR-3
EKVX = tested on: EKVX
HCT-15 = tested on: HCT-15
KM12 = tested on: KM12
SN12C = tested on: SN12C
KM-20L2 = tested on: KM-20L2
NCI-H226 = tested on: NCI-H226
SNB-75 = tested on: SNB-75
UACC-257 = tested on: UACC-257
786-0 = tested on: 786-0
HOP-62 = tested on: HOP-62
MOLT-4 = tested on: MOLT-4
OVCAR-8 = tested on: OVCAR-8
XF498 = tested on: XF498
MCF7 = tested on: MCF7
NCI-H460 = tested on: NCI-H460
SF-539 = tested on: SF-539
SNB-78 = tested on: SNB-78
ACHN = tested on: ACHN
MDA-MB-231 = tested on: MDA-MB-231
MDA-N = tested on: MDA-N
RPMI-8226 = tested on: RPMI-8226
DLD-1 = tested on: DLD-1
T47D = tested on: T47D
HCT-116 = tested on: HCT-116
A498 = tested on: A498
SK-MEL-5 = tested on: SK-MEL-5
MDA-MB-435 = tested on: MDA-MB-435
SR = tested on: SR
HOP-92 = tested on: HOP-92
HOP-18 = tested on: HOP-18
DMS-114 = tested on: DMS-114
SK-MEL-28 = tested on: SK-MEL-28
RXF 393 = tested on: RXF 393
TK-10 = tested on: TK-10
OVCAR-4 = tested on: OVCAR-4
COLO 205 = tested on: COLO 205
NCI-H23 = tested on: NCI-H23
OVCAR-5 = tested on: OVCAR-5
CCRF-CEM = tested on: CCRF-CEM
A549 = tested on: A549
HL-60 = tested on: HL-60
SK-OV-3 = tested on: SK-OV-3
Hs-578T = tested on: Hs-578T
SK-MEL-2 = tested on: SK-MEL-2
U-251 = tested on: U-251
SF-295 = tested on: SF-295
RXF 631 = tested on: RXF 631
NCI/ADR-RES = tested on: NCI/ADR-RES
LXFL 529 = tested on: LXFL 529
NCI-H522 = tested on: NCI-H522
CAKI-1 = tested on: CAKI-1
M14 = tested on: M14
HCC 2998 = tested on: HCC 2998
SW-620 = tested on: SW-620
BT-549 = tested on: BT-549
PC-3 = tested on: PC-3
DU-145 = tested on: DU-145
K562 = tested on: K562
UO-31 = tested on: UO-31
HT-29 = tested on: HT-29
UACC-62 = tested on: UACC-62
IGROV-1 = tested on: IGROV-1
SF-268 = tested on: SF-268

`COc1cc2c(c(OC)c1OC)-c1ccc(OC)c(=O)cc1C(NC(=O)COc1ccccc1)CC2` (stereo not given) was tested, and the GI50 (DMS-273) was < 0.01 µM (active), the GI50 (SNB-19) was < 0.01 µM (active) and the GI50 (M19-MEL) was < 0.01 µM (active). For the same molecule, the GI50 (Malme-3M) was < 0.01 µM (active), the GI50 (LOX IMVI) was < 0.01 µM (active) and the GI50 (OVCAR-3) was < 0.01 µM (active). For the same molecule, the GI50 (EKVX) was 0.731 µM (active), the GI50 (HCT-15) was 0.0104 µM and the GI50 (KM12) was < 0.01 µM (active). For the same molecule, the GI50 (SN12C) was < 0.01 µM (active), the GI50 (KM-20L2) was < 0.01 µM (active) and the GI50 (NCI-H226) was < 0.0372 µM (active). For the same molecule, the GI50 (SNB-75) was < 0.01 µM (active), the GI50 (UACC-257) was < 0.029 µM (active) and the GI50 (786-0) was < 0.01 µM (active). The GI50 (HOP-62) was < 0.01 µM (active), the GI50 (MOLT-4) was < 0.01 µM (active) and the GI50 (OVCAR-8) was < 0.01 µM (active). For the same molecule, the GI50 (XF498) was < 0.0625 µM (active), the GI50 (MCF7) was < 0.01 µM (active) and the GI50 (NCI-H460) was < 0.01 µM (active). The GI50 (SF-539) was < 0.01 µM (active), the GI50 (SNB-78) was < 0.01 µM (active) and the GI50 (ACHN) was 0.0101 µM (active). For the same molecule, the GI50 (MDA-MB-231) was < 0.01 µM (active), the GI50 (MDA-N) was < 0.01 µM (active) and the GI50 (RPMI-8226) was < 0.01 µM (active). The GI50 (DLD-1) was < 0.01 µM (active), the GI50 (T47D) was 39.9 µM (inactive) and the GI50 (HCT-116) was < 0.01 µM (active). For the same molecule, the GI50 (A498) was < 0.01 µM (active), the GI50 (SK-MEL-5) was < 0.01 µM (active) and the GI50 (MDA-MB-435) was < 0.01 µM (active). For the same molecule, the GI50 (SR) was < 0.01 µM (active), the GI50 (HOP-92) was < 0.01 µM (active) and the GI50 (HOP-18) was > 100 µM (inactive). The GI50 (DMS-114) was < 0.01 µM (active), the GI50 (SK-MEL-28) was 0.0498 µM (active) and the GI50 (RXF 393) was 0.0184 µM (active). The GI50 (TK-10) was 0.627 µM (active), the GI50 (OVCAR-4) was 3.11 µM (inactive) and the GI50 (COLO 205) was < 0.01 µM (active). For the same molecule, the GI50 (NCI-H23) was < 0.01 µM (active), the GI50 (OVCAR-5) was 0.3 µM (active) and the GI50 (CCRF-CEM) was 0.0162 µM (active). For the same molecule, the GI50 (A549) was < 0.01 µM (active), the GI50 (HL-60) was 0.0372 µM (active) and the GI50 (SK-OV-3) was 0.0282 µM (active). For the same molecule, the GI50 (Hs-578T) was < 0.01 µM (active), the GI50 (SK-MEL-2) was < 0.01 µM (active) and the GI50 (U-251) was < 0.01 µM (active). For the same molecule, the GI50 (SF-295) was < 0.01 µM (active), the GI50 (RXF 631) was < 0.01 µM (active) and the GI50 (NCI/ADR-RES) was 0.0546 µM (active). The GI50 (LXFL 529) was < 0.01 µM (active), the GI50 (NCI-H522) was < 0.01 µM (active) and the GI50 (CAKI-1) was < 0.01 µM (active). For the same molecule, the GI50 (M14) was < 0.01 µM (active), the GI50 (HCC 2998) was < 0.01 µM (active) and the GI50 (SW-620) was < 0.01 µM (active). For the same molecule, the GI50 (BT-549) was < 0.01 µM (active), the GI50 (PC-3) was < 0.01 µM (active) and the GI50 (DU-145) was < 0.01 µM (active). For the same molecule, the GI50 (K562) was < 0.0208 µM (active), the GI50 (UO-31) was 0.0402 µM (active) and the GI50 (HT-29) was < 0.01 µM (active). The GI50 (UACC-62) was < 0.01 µM (active), the GI50 (IGROV-1) was < 0.01 µM (active) and the GI50 (SF-268) was < 0.01 µM (active).
In the case of `COC(=O)C#CCC1CCCC1C1SCCS1` (stereo not given), the GI50 (DMS-273) is reported as 30.4 µM (inactive), the GI50 (SNB-19) is reported as 91.4 µM (inactive) and the GI50 (M19-MEL) is reported as > 100 µM (inactive). The GI50 (Malme-3M) was > 100 µM (inactive), the GI50 (LOX IMVI) was 50.2 µM (inactive) and the GI50 (OVCAR-3) was 88.3 µM (inactive). For the same molecule, the GI50 (EKVX) was > 100 µM (inactive), the GI50 (KM12) was 36.7 µM (inactive) and the GI50 (SN12C) was 37.5 µM (inactive). For the same molecule, the GI50 (KM-20L2) was 59.6 µM (inactive), the GI50 (NCI-H226) was > 100 µM (inactive) and the GI50 (SNB-75) was > 100 µM (inactive). The GI50 (UACC-257) was 51.3 µM (inactive), the GI50 (786-0) was > 100 µM (inactive) and the GI50 (HOP-62) was > 100 µM (inactive). For the same molecule, the GI50 (MOLT-4) was 21.2 µM (inactive), the GI50 (OVCAR-8) was 61.1 µM (inactive) and the GI50 (XF498) was 41 µM (inactive). For the same molecule, the GI50 (SF-539) was 99.1 µM (inactive), the GI50 (SNB-78) was 23.6 µM (inactive) and the GI50 (ACHN) was 34 µM (inactive). The GI50 (DLD-1) was 73.5 µM (inactive), the GI50 (HCT-116) was > 100 µM (inactive) and the GI50 (A498) was > 100 µM (inactive). For the same molecule, the GI50 (SK-MEL-5) was > 100 µM (inactive), the GI50 (SR) was 15.8 µM (inactive) and the GI50 (HOP-92) was > 100 µM (inactive). For the same molecule, the GI50 (HOP-18) was > 100 µM (inactive), the GI50 (DMS-114) was > 100 µM (inactive) and the GI50 (SK-MEL-28) was > 100 µM (inactive). The GI50 (RXF 393) was > 100 µM (inactive), the GI50 (TK-10) was > 100 µM (inactive) and the GI50 (OVCAR-4) was 71.4 µM (inactive). For the same molecule, the GI50 (COLO 205) was > 100 µM (inactive), the GI50 (NCI-H23) was > 100 µM (inactive) and the GI50 (OVCAR-5) was > 100 µM (inactive). For the same molecule, the GI50 (CCRF-CEM) was 29.2 µM (inactive), the GI50 (A549) was > 100 µM (inactive) and the GI50 (HL-60) was 38.1 µM (inactive). The GI50 (SK-OV-3) was > 100 µM (inactive), the GI50 (SK-MEL-2) was 26.2 µM (inactive) and the GI50 (U-251) was 59.6 µM (inactive). The GI50 (SF-295) was 90.6 µM (inactive), the GI50 (RXF 631) was > 100 µM (inactive) and the GI50 (LXFL 529) was 70.1 µM (inactive). For the same molecule, the GI50 (NCI-H522) was 28 µM (inactive), the GI50 (CAKI-1) was > 100 µM (inactive) and the GI50 (M14) was > 100 µM (inactive). The GI50 (HCC 2998) was > 100 µM (inactive), the GI50 (SW-620) was > 100 µM (inactive) and the GI50 (K562) was 43.5 µM (inactive). For the same molecule, the GI50 (UO-31) was > 100 µM (inactive), the GI50 (HT-29) was > 100 µM (inactive) and the GI50 (UACC-62) was 35.8 µM (inactive). For the same molecule, the GI50 (IGROV-1) was > 100 µM (inactive) and the GI50 (SF-268) was > 100 µM (inactive).
